These results are taken from PubChem BioAssay (NCI).

Experiment in all cases: NCI anticancer screen, dose series, 48 h
The test system of assay [1] is T-47D breast.
Assay [2] deals with MDA-MB-435.
In assay [3] the test system is MCF7 breast.
The test system of assay [4] is M19-MEL melanoma.
For assay [5], the system named is DLD-1 colon.
For assay [6], the system named is SNB-78 CNS.
Assay [7] relates to DMS 273 small cell lung.
In assay [8] the test system is DMS 114 small cell lung.
Assay [9] relates to LXFL 529 NSCLC.

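Assay format: 96-well plates, 48-hour exposure. Here, GI50 denotes the concentration required for 50% inhibition of growth. The concentration for full growth arrest is given as TGI.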 Some results are limits rather than exact numbers.

For the compound `Cn1cc(-c2ccc3nnc(C(F)(F)c4ccc5ncccc5c4)n3n2)cn1`, the GI50 in assay [1] was 40.8 µM; in assay [2], 57.8 µM; in assay [3], 69.4 µM. Besides, the TGI in assay [1], in [2] and in assay [3] was more than 100 µM each time.
Turning to `CSc1nc(SC)c2c(C)cn(C3OC(C)C(O)C(O)C3O)c2n1` (stereo not drawn), the TGI was 84.7 µM in assay [1], more than 100 µM in assay [2] and more than 100 µM in [3].
Consider `CCN(CC)CCNC(=O)C(Cl)=C1C(Cl)=C(Cl)C(Cl)=C1Cl`, for which the results for the GI50 in assay [1], in assay [2] and in assay [3] were 4.19 µM, 2.24 µM and 2.8 µM, respectively. Besides, the TGI amounted to 45.6 µM in [1], 6.54 µM in assay [2] and 13.5 µM in assay [3].
With `COc1ccc2c(c1)C(=O)c1c-2c(OCCN2CCCCC2)nc2ccc(OC)cc12`, the GI50 in assay [1] is 3.44 µM; in assay [2] it was 0.648 µM; in assay [3] it was 0.275 µM. For the same compound, the TGI in [1] came to 25.8 µM; in assay [2] it was 2.28 µM; in [3] it was 2.05 µM.
Regarding `O=C(O)c1c[nH]c2c(ccc3[nH]cc(C(=O)O)c(=O)c32)c1=O`, the TGI in assay [1], in assay [2] and in [3] was more than 100 µM in each case.
With `C=CCCCC(O)c1ccc(C(O)c2cnc3ccccc3c2)o1` (stereo not drawn), the GI50 in [1] was more than 100 µM; in assay [2], 22.5 µM; in [3], 26 µM. Besides, the figures for the TGI in assay [1], in [2] and in assay [3] were more than 100 µM, 48.4 µM and more than 100 µM, respectively.
On to `C=C(C)C1CCC2(C(=O)O)CCC3(C)C(CCC4C5(C)CCC(O)C(C)(C)C5CCC43C)C12` (stereo not drawn), for which the TGI in assay [1] stood at 35.5 µM; in [2], 48.4 µM; in [3] it was 47.7 µM.
As to `O=C(c1ccccc1)c1c2n(c3c1cc(O)c1ccccc13)CCN2`, the GI50 in assay [1] was 1.77 µM; in assay [2] it was 1.99 µM; in assay [3] it was 1.97 µM. Besides, the TGI in assay [1] is 3.99 µM; in [2] it was 3.73 µM; in assay [3], 3.87 µM.
Take `C[C@H]1CCC2C(CN3CCCCC3)C(=O)OC2[C@]2(C)C(=O)CC(N3CCCCC3)C12O` (stereo partly drawn): the TGI in [4] was 23.9 µM; in assay [5], 16 µM; in assay [6], more than 100 µM; in [7] it was 23.4 µM; in assay [8], 13.1 µM.
Consider `CCCCCCn1c2c(c3c(O)cccc31)C(=O)c1ccccc1-2`, for which the GI50 was 41.4 µM in [1], 20.3 µM in [2] and 18 µM in [3]. Besides, the TGI is more than 100 µM in assay [1], 44.9 µM in [2] and 35.2 µM in assay [3].
As to `COc1cccc(/C=C2\CCc3ccccc3C2=O)c1`, the GI50 was 13.6 µM in [1], 4.15 µM in assay [2] and 3.53 µM in [3]. Moreover, the TGI came to 38.9 µM in [1], 20.1 µM in assay [2] and 17.8 µM in assay [3].
As for `CN1c2ccccc2S(=O)(=O)n2c(COc3ccccc3)nnc21`, the TGI in [1], in assay [2] and in [3] was more than 100 µM in each case.
As to `NCCCCCCCCCn1c2c(c3ccccc3c1=O)C(=O)c1ccccc1-2`, the GI50 in [1] was 9.33 µM; in assay [2] it was 9.52 µM; in [3], 9.62 µM. The TGI in assay [1] was found to be 22 µM; in [2] it was 19.1 µM; in [3] it was 26.1 µM.
For `COc1ccc2c(c1)CC1N(C)CCC13CCCCC23` (stereo not drawn), the TGI in assay [1], in assay [2] and in assay [3] was more than 100 µM each time.
On to `CCN(CC)CC(O)c1cc(-c2ccc(Cl)cc2)nc2cc(Cl)ccc12` (stereo not drawn), for which the GI50 in assay [1] is 2.53 µM; in assay [2], 1.71 µM; in [3], 1.5 µM. Moreover, the TGI amounted to 7.01 µM in assay [1], 3.32 µM in assay [2] and 2.9 µM in [3].
As to `COc1cc(/C=C2\CC3C4CCC5=CC(=O)CC[C@]5(C)C4CC[C@]3(C)C2=O)ccc1OCCN1CCCCC1` (stereo partly drawn), the figures for the GI50 in assay [1], in [2] and in assay [3] were 11.3 µM, 1.97 µM and 3.35 µM, respectively. Also, the TGI is 41.9 µM in [1], 4.28 µM in [2] and 8.55 µM in assay [3].
Turning to `Cc1nc2cc(Nc3nc(Nc4ccc(F)cc4)nc(N4CCCC4)n3)ccc2n1Cc1ccccc1`, the GI50 in assay [1] is 2.18 µM; in [2], 1.62 µM; in assay [3], 2.22 µM. The TGI is 4.94 µM in [1], 3.09 µM in assay [2] and 7.44 µM in assay [3].
As to `COc1cc2oc(-c3ccc(O)cc3)cc(=O)c2c(OC)c1O`, the TGI in [1] is 88.2 µM; in assay [2], more than 100 µM; in [3] it was more than 100 µM.
`C=C(C)[C@@H]1CC[C@]2(C(=O)N3CCN(C)CC3)CC[C@]3(C)[C@H](CC[C@@H]4[C@@]5(C)CC[C@H](O)C(C)(C)[C@@H]5CC[C@]43C)[C@@H]12`: the GI50 was 1.48 µM in [1], 1.8 µM in assay [2] and 1.79 µM in [3]. Also, the TGI in [1] is 3.75 µM; in [2], 3.5 µM; in assay [3], 4.22 µM.
For the compound `O=C(O)C1C2CCC(O2)C1C(=O)NCc1cccnc1` (stereo not drawn), the TGI in assay [1], in [2] and in assay [3] was more than 100 µM each time.
Regarding `C1C[S][Ge]2([S]CCS1)[S]CCSCC[S]2`, the GI50 in assay [4], in assay [5], in assay [6], in [7], in assay [8] and in assay [9] was more than 100 µM each time. Besides, the TGI in [4], in assay [5], in [6], in assay [7], in assay [8] and in assay [9] was more than 100 µM in each case.
Consider `COC(=O)[C@H](C)[C@@H]1CC[C@](C)(CCC2=C(C)CCCC2(C)C)OO1`, for which the TGI in [1], in assay [2] and in assay [3] was more than 25 µM each time.
